From patent US20200017823A1, “HYDROGEL COMPOSITIONS FOR USE IN NEURAL CELL EXPANSION AND DIFFERENTIATION” (Wisconsin Alumni Research Foundation, priority 2018, published 2020)
Like-named read-outs stand apart in the source and are kept apart here.

Legend:
iCell Neurons [1] = assay: High-content imaging with skeleton network analysis: neurite branches versus cell viability
Experimental: All data points are mean±SEM. FIG. 14A: Dexamethasone. FIG. 14B: Colchicine.
Commercially available human iPSC-derived neurons (iCell Neurons) and their supporting media were purchased from Cellular Dynamics International (CDI, Madison, Wis.). Previously characterized iCell Neurons represent a mixture of post-mitotic GABAergic and glutamatergic neurons with >95% purity. The cells were received, frozen, thawed, and plated following a protocol recommended by CDI. Briefly, cells were plated on poly-L-lysine pre-coated 384 well plates (Greiner Bio-One) with PEG-NB hydrogels, 3.3 μg/ml laminin, or 60-120 μg/ml […]®.

iCell Neurons [2] = assay: Synthetic hydrogel-based network formation/inhibition assay (total network area); assay type: cell-based, human; conditions: PLL/Laminin and MATRIGEL screening systems
Text: Total network area was quantified by thresholding neurite processes and cell bodies stained with immunofluorescent tags for βIII-tubulin and MAP2. The resulting data was compared using the Z′ statistic to assess the accuracy of the synthetic hydrogel, PLL/Laminin, and MATRIGEL® screening systems in distinguishing neuronal networks disrupted by the known microtubule inhibitor Colchicine from non-inhibited networks.

NC(=O)N1c2ccccc2C=Cc2ccccc21 [Carbamazepine]
cell viability (iCell Neurons [1]): reduced viability | neurite branches / neurite growth (iCell Neurons [1]): apparent inhibition

COc1cc2c(c(OC)c1OC)-c1ccc(OC)c(=O)cc1[C@@H](NC(C)=O)CC2 [Colchicine]
neurite branches / neurite growth (iCell Neurons [1]; synthetic substrate, treated after 120-hour growth, exposed 120 hours, media replenished daily, compared to cell viability): significant reductions | neuronal network (total network area, βIII-tubulin and MAP2 stain) (iCell Neurons [2]): disrupted

C[C@@H]1C[C@H]2[C@@H]3CCC4=CC(=O)C=C[C@]4(C)[C@@]3(F)[C@@H](O)C[C@]2(C)[C@@]1(O)C(=O)CO [Dexamethasone]
neurite branches / neurite growth (iCell Neurons [1]): significant reductions
